Measured values taken from ChEMBL document CHEMBL1201862, “PubChem BioAssay data set” (2004).
Active and inactive are the calls of the source.

Key:
Chaperone protein dnaK = Chaperone protein dnaK (Escherichia coli, UniProt C3TRK2); assay: E. coli DnaK binders, calorimetric Kd – biophysical, isothermal titration calorimetry, beta-domain, full-length DnaK, orthogonal assay for DnaK modulator project, SAR follow-up (AID 1495)
Vero [1] = assay: host cell viability loss, Vero E6 – synthesized analogs, cytotoxicity control for West Nile virus antiviral project, SAR follow-up (AID 2244); assay type: functional; conditions: Chlorocebus sabaeus
Vero [2] = assay: Vero 76 cell viability after compound exposure – Vero 76 cells, synthesized analogs, cytotoxicity control for West Nile virus antiviral project, SAR follow-up (AID 2414); assay type: functional; conditions: Chlorocebus sabaeus
Vero [3] = assay: Vero cell viability after compound exposure – synthesized analogs, set II, cytotoxicity control for West Nile virus antiviral project, SAR follow-up (AID 2402); assay type: functional; conditions: Chlorocebus sabaeus
Cytochrome P450 3A4 = Cytochrome P450 3A4 (Homo sapiens, UniProt P08684); conditions: Potency;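 note: confirmatory qHTS run detecting inhibitors and substrates of CYP3A4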
Cytochrome P450 3A4, sequence (P08684 whole entry): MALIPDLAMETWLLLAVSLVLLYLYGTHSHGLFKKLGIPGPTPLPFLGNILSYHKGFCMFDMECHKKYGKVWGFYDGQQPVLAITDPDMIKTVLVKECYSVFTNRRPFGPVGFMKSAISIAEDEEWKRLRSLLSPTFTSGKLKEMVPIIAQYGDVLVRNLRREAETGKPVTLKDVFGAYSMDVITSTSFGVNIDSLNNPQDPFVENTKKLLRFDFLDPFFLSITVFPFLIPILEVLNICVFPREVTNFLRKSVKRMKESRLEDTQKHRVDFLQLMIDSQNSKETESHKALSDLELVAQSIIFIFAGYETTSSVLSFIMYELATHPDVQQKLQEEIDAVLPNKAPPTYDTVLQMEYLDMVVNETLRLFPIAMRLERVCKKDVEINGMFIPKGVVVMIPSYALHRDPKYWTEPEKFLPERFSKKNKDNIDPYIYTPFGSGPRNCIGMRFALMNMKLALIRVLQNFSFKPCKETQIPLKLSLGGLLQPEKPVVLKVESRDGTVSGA

Bcl-2-related protein A1 [4] = target: T1, Bcl-2-related protein A1 (Mus musculus, UniProt Q07440); assay: displacement of Bid BH3 peptide from Bfl-1 – biochemical, fluorescence polarization, FITC-Bid, mouse, primary screen (AID 432)
T1 sequence (Q07440 whole entry): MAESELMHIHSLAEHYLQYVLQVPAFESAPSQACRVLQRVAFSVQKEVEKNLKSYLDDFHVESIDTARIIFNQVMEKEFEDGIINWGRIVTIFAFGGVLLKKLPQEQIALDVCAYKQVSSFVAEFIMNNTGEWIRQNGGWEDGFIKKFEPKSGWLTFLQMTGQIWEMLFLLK

Protein Rev = Protein Rev (Human immunodeficiency virus type 1 group M subtype B (isolate WMJ22)(HIV-1), UniProt P05866); assay: inhibitors of Rev protein–RRE RNA complex – biochemical, protein-RNA interaction, dose response (AID 842); design: species or system Human immunodeficiency virus 1
[5] = target: T2, Calpain-2 catalytic subunit (Sus scrofa, UniProt P43367); assay: m-calpain protease blockers, concentration series – biochemical, fluorogenic peptide substrate, dose response (AID 1420); assay type: functional
T2 sequence (P43367 whole entry): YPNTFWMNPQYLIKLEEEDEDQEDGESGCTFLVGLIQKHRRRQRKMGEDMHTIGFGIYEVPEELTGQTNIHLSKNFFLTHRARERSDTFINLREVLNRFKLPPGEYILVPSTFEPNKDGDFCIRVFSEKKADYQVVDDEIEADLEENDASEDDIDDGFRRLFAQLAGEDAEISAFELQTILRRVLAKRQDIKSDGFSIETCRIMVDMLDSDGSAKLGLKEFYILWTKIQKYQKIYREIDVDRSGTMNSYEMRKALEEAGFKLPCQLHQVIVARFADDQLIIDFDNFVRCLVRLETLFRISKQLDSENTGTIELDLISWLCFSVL

Bcl-2-related protein A1 [6] = target: T1, Bcl-2-related protein A1; assay: small-molecule antagonists of Bfl-1/BH3 interaction – biochemical, TR-FRET, mouse Bfl-1, confirmation (AID 621);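 note: TR-FRET binding of GST-Bfl-1 to FITC-labelled Bid peptide via terbium antibody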
[7] = Luminescence Cell-Based Dose Response HTS to Identify Inhibitors of 5'UTR Stem-Loop Driven Prion Protein mRNA Translation in H4 Neuroglioblastoma Cells. [Related pubchem assays: 1827 (Project Summary), 1813 (Primary HTS)]; assay type: functional
[8] = luciferase reporter signal suppression in cells – H4 neuroglioma cells, luminescence, dose response (AID 1990); assay type: functional, cell-based
Streptococcus [9] = assay: Luminescence Microorganism-Based Dose Response Follow up to Identify Compounds Cytotoxic to Streptococcus. [Related pubchem assays: 1677 (Project Summary), 1915, 1914, 1902 (Retest at Dose), 1900 (Counter Screen), 1662 (Primary HTS)]; assay type: functional, organism-based
[10] = alpha-synuclein stem-loop luciferase translation blockers – H4 neuroglioma cells, luminescence, confirmation (AID 1988); assay type: functional, cell-based
[11] = system: Streptococcus sp. 'group A'; assay: Streptococcus pyogenes SK(-)GAS viability under kanamycin – luminescence, BacTiterGlo, confirmation, counter-screen for streptokinase expression inhibitor project, dose response (AID 1900); assay type: functional, organism-based; conditions: read-out: EC50
Streptokinase A = target: T3, Streptokinase A (Streptococcus pyogenes serotype M1, UniProt P10520); assay: viability-normalized secreted streptokinase activity reduction – plasminogen activation absorbance, OD405, dose response (AID 1914); assay type: functional, Streptococcus pyogenes M1 GAS;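 note: secreted streptokinase activity via plasminogen activation per viability signal from cell pellet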
T3 sequence (P10520 whole entry): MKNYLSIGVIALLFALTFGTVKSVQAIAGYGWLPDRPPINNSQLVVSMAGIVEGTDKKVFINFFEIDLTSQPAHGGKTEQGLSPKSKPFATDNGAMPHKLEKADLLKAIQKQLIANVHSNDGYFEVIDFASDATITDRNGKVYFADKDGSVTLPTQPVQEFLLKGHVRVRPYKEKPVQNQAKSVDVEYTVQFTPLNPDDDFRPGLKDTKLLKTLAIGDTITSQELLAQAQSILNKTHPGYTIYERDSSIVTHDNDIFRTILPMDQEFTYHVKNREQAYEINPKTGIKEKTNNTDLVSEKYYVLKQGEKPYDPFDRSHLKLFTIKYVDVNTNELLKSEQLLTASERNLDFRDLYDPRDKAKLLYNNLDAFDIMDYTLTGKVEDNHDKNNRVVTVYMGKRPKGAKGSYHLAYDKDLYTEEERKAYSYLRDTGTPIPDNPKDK

Streptococcus [12] = assay: GAS UMAA2166 growth inhibition – luminescence, BacTiterGlo, counter-screen for streptokinase expression inhibitor project, dose response (AID 1915); assay type: functional, organism-based;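 note: potency for reduction of bacterial viability or growth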
[13] = A cytotoxicity screen of small molecule inhibitors of the PhoP region in Salmonella typhi identified in the primary screen. [Related pubchem assays: 1850, 1864, 1985 ]; assay type: functional
[14] = target: Transitional endoplasmic reticulum ATPase (Homo sapiens, UniProt P55072, C522A); assay: C522A mutant p97 ATPase inhibitors, dose response, counter-screen for p97 inhibitor project, biochemical, luminescence (AID 1544)
Vero [15] = assay: cells; assay type: functional, cell-based; conditions: Chlorocebus sabaeus
[16] = target: Transitional endoplasmic reticulum ATPase (Homo sapiens, UniProt P55072); assay: p97 ATPase inhibitors, dose response, biochemical (AID 1534)
Vibrio harveyi [17] = assay: LuxS/LuxPQ-dependent luminescence inhibition, V. harveyi – dry powder, set 2, dose response (AID 493072); assay type: functional, organism-based
Vibrio harveyi [18] = assay: Quorum Sensing, LuxS, LuxPQ Measured in Microorganism System Using Plate Reader - 2035-01_Inhibitor_DoseNoFile_DryPowder_Activity. [Related pubchem assays (depositor defined):AID2106]; assay type: functional, organism-based
[19] = target: T4, Eukaryotic translation initiation factor 2-alpha kinase 3 (Homo sapiens, UniProt Q9NZJ5); assay: Counterscreen assay for PERK inhibitors: Dose response cell-based high throughput screening assay to measure inhibition of PERK at 6 hours. [Related pubchem assays: 1522, 1416 ]; assay type: functional
T4 sequence (Q9NZJ5 whole entry): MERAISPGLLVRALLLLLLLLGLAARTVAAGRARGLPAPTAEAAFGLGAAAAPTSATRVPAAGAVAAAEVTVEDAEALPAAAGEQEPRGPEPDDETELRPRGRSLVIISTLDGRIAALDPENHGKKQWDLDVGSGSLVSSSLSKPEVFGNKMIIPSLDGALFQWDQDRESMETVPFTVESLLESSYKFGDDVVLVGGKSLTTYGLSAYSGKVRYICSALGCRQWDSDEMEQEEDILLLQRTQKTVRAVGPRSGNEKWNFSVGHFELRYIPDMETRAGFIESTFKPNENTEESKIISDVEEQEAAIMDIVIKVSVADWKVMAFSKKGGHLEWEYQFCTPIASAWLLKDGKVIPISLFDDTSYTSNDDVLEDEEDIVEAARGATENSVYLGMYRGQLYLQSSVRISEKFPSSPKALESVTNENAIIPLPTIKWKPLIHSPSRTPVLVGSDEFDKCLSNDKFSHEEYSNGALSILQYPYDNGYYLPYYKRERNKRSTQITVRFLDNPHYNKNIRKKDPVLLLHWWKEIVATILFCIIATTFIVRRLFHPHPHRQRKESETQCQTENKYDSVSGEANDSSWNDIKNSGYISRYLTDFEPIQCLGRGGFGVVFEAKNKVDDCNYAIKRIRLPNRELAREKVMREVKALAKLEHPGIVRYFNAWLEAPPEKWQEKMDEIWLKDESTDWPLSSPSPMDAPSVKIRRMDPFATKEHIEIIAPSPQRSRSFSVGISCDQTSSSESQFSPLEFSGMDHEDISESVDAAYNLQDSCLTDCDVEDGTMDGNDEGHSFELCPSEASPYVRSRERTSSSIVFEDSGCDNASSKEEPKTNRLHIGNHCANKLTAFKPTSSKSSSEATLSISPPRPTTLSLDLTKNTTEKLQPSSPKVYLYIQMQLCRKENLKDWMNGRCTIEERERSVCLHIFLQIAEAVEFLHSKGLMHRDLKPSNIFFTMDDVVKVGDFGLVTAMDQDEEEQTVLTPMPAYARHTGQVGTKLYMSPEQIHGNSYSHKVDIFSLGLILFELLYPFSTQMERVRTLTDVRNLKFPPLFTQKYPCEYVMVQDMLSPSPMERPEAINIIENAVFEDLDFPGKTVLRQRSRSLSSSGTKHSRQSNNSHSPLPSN

[20] = target: T4, Eukaryotic translation initiation factor 2-alpha kinase 3; assay: Dose response cell-based high-throughput screening assay to measure PERK inhibition. [Related pubchem assays: 1416 ]; assay type: functional
Cytochrome P450 1A2 = target: T5, Cytochrome P450 1A2 (Homo sapiens, UniProt P05177);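 note: PubChem cytochrome P450 panel assay, CYP1A2 panel member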
T5 sequence (P05177 whole entry): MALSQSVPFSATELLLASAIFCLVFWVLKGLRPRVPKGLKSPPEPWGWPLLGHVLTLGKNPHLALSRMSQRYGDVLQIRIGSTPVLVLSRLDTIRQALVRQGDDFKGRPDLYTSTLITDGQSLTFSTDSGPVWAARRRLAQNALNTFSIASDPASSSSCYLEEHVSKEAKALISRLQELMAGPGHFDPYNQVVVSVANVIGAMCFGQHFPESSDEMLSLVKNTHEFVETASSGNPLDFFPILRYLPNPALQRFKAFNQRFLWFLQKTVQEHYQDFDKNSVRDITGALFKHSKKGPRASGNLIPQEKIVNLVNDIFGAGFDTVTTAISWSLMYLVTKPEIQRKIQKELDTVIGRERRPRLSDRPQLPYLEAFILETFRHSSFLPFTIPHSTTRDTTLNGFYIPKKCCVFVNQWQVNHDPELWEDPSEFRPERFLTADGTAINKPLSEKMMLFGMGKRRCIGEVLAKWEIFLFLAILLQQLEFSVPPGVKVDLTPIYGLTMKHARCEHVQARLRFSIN

Cytochrome P450 2C19 = Cytochrome P450 2C19 (Homo sapiens, UniProt P33261); assay: Cytochrome panel assay with activity outcomes. Panel member name: p450-cyp2c19 Compounds with AC50 equal or less than 10 uM are considered active; assay type: functional; conditions: read-out: AC50
Cytochrome P450 2C9 [21] = target: T6, Cytochrome P450 2C9 (Homo sapiens, UniProt P11712); conditions: Potency
T6 sequence (P11712 whole entry): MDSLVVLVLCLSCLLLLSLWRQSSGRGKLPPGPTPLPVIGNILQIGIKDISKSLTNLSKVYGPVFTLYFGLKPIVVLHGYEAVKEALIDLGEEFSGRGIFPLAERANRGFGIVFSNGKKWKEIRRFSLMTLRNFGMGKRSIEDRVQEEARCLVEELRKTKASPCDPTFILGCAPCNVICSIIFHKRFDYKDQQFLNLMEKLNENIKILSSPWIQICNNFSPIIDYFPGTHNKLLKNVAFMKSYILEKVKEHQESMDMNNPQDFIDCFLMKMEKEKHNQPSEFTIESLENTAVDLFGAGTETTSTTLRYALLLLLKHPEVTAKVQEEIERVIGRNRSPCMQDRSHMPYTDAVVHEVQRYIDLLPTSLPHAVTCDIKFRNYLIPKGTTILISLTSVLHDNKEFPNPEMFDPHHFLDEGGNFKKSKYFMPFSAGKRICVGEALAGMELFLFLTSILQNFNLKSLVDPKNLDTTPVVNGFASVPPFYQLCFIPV

Cytochrome P450 2D6 [22] = target: T7, Cytochrome P450 2D6 (Homo sapiens, UniProt P10635)
T7 sequence (P10635 whole entry): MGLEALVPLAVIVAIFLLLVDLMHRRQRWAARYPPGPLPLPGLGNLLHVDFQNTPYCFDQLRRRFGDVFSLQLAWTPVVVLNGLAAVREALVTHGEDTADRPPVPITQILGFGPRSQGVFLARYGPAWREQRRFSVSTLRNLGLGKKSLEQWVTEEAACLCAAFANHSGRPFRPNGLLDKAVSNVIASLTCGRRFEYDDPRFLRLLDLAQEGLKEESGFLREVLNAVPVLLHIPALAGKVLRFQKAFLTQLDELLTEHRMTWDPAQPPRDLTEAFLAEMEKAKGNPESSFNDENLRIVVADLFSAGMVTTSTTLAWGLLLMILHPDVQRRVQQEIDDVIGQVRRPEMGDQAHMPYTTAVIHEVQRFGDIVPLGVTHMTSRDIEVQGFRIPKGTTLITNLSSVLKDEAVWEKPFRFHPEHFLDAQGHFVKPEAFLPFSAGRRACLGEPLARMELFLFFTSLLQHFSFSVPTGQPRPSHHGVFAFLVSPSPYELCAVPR

Cytochrome P450 2C9 [23] = target: T6, Cytochrome P450 2C9
Cytochrome P450 2D6 [24] = target: T7, Cytochrome P450 2D6; assay: qHTS Assay for Inhibitors and Substrates of Cytochrome P450 2D6. [Related pubchem assays: 410 ]; assay type: ADME; conditions: read-out: Potency
[25] = target: T8, Intestinal-type alkaline phosphatase (Homo sapiens, UniProt P09923); assay: Dose Response confirmation of uHTS hits from a small molecule inhibitors of human intestinal alkaline phosphatase via a luminescent assay. [Related pubchem assays (depositor defined):AID2544, AID2574]; assay type: functional
T8 sequence (P09923 whole entry): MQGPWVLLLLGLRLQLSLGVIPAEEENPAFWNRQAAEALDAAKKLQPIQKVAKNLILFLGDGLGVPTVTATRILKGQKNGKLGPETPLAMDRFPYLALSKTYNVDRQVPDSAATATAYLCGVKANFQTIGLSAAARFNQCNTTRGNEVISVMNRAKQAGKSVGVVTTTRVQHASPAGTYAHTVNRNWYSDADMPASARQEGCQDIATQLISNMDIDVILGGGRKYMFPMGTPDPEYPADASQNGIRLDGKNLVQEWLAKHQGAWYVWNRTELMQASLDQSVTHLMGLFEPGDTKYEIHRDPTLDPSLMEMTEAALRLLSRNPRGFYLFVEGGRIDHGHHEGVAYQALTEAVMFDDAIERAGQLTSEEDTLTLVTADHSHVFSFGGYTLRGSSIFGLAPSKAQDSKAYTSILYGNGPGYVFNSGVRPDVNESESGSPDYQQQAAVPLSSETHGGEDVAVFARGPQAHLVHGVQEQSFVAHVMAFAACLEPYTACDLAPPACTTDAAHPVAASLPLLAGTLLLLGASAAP

Large T antigen = Large T antigen (Simian virus 40, UniProt P03070); assay type: functional, Betapolyomavirus macacae;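 note: Confirmatory-stage PubChem screen for compounds that inhibit SV40 T antigen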
Large T antigen, sequence (P03070 whole entry): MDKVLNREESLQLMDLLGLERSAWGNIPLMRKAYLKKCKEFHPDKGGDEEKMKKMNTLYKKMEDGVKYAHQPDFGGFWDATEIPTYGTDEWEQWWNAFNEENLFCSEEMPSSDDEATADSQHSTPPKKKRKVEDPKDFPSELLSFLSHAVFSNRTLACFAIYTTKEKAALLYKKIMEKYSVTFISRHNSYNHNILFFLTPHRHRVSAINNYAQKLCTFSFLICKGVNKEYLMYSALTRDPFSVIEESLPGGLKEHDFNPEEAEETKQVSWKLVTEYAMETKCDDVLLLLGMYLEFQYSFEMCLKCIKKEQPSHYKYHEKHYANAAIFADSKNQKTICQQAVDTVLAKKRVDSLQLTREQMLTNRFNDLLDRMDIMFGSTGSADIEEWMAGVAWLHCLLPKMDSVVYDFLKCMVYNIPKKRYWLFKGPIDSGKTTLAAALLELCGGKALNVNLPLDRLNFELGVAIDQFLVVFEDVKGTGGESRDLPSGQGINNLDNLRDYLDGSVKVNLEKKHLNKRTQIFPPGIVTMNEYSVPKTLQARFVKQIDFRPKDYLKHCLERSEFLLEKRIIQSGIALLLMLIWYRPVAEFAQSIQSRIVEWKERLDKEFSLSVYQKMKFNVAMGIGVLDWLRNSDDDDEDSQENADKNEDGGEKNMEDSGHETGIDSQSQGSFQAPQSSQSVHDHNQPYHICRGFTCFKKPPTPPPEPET

[26] = target: T9, Alkaline phosphatase, tissue-nonspecific isozyme (Homo sapiens, UniProt P05186); assay: activation of tissue-nonspecific alkaline phosphatase – biochemical, TNAP isozyme, human IAP uHTS hits, selectivity assay for human IAP activator project, dose response (AID 488886); assay type: functional;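 note: potency of compounds raising TNAP activity as a selectivity check on IAP activators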
T9 sequence (P05186 whole entry): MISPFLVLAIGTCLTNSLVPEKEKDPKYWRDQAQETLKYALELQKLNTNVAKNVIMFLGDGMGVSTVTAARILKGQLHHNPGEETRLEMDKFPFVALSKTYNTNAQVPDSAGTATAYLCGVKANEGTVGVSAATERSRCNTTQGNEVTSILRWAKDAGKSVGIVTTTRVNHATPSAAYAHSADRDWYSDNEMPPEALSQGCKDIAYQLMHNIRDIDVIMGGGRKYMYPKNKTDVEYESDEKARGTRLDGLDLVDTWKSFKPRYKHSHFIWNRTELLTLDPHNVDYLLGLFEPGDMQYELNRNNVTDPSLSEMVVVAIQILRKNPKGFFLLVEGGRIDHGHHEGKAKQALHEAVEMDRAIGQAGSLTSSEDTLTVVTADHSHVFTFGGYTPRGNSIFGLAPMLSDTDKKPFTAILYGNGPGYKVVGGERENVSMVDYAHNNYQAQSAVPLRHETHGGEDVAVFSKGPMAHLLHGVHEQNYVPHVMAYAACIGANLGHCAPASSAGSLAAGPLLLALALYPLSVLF

[27] = target: T8, Intestinal-type alkaline phosphatase; assay: inhibition of human intestinal alkaline phosphatase – biochemical, luminescent, uHTS hits, set 2, dose response (AID 488793); assay type: functional
[28] = target: Photoreceptor-specific nuclear receptor (Homo sapiens, UniProt Q9Y5X4); assay type: functional;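 note: potency for compounds that break the NR2E3 corepressor complex and count as activators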
[29] = target: Peroxisome proliferator-activated receptor gamma/Nuclear receptor corepressor 2 (Homo sapiens, UniProt P37231+Q9Y618); assay type: functional
[30] = target: Intestinal-type alkaline phosphatase (Mus musculus, UniProt P24822); assay: PubChem AID 488874; assay type: functional
Intestinal-type alkaline phosphatase (Mus musculus, UniProt P24822), sequence (P24822 whole entry): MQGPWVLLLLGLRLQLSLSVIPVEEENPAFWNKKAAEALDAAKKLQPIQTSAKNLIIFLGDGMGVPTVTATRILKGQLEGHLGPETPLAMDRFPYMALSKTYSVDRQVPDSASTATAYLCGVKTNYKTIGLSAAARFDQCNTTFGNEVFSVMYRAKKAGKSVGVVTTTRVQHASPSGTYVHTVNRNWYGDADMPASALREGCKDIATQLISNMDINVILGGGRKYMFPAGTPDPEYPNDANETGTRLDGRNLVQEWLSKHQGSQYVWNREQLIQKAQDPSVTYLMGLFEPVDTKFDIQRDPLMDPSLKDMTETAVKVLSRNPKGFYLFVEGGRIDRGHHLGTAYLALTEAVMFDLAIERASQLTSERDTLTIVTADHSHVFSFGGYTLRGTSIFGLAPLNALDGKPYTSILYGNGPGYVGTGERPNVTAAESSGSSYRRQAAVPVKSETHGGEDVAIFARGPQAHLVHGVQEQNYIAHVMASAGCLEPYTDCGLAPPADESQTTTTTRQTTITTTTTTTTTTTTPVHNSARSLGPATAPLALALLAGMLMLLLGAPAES

Chaperone protein dnaK, sequence (C3TRK2 whole entry): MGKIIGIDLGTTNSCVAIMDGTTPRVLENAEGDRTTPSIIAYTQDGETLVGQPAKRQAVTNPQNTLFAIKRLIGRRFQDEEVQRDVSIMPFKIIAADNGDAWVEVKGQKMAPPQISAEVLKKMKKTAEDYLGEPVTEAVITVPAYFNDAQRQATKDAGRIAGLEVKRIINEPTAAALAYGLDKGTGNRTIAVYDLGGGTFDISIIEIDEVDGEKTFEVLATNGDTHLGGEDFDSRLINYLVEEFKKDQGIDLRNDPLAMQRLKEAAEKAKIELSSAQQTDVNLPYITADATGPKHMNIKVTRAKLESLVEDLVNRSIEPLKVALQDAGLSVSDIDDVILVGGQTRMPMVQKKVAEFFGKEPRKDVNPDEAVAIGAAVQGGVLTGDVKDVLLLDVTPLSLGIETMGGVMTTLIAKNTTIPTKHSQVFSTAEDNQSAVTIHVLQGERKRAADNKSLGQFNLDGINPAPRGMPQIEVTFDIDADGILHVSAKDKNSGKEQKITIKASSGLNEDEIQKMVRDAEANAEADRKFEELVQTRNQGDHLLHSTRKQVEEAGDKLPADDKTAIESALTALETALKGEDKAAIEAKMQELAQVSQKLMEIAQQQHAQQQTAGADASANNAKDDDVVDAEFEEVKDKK

For Nc1ccc2c(ccn2C(=O)c2cccs2)c1, the Kd (Chaperone protein dnaK) was 3.4 µM (active).

For O=c1c2cc(Br)ccc2nc2n1CC/C2=C/c1ccccc1, the CC50 (Vero [1]) was > 40 µM (active), the CC50 (Vero [2]) was > 66.6 µM (active) and the CC50 (Vero [3]) was 33.3 µM (active).

In the case of COCCN(CCOC)c1nc(C)nc2c1nc(-c1ccccc1)n2CCN(C)C, the AC50 (Cytochrome P450 3A4) is reported as 15.8 µM (inconclusive).

In the case of COc1cccc(OC)c1-c1nn2c(-c3cc(-c4ccccc4)n[nH]3)nnc2s1, the IC50 (Bcl-2-related protein A1 [4]) is reported as 14.1 µM (active), the IC50 (Protein Rev) is reported as > 79.4 µM (not active) and the IC50 [5] is reported as > 50 µM (not active). For the same molecule, the IC50 (Bcl-2-related protein A1 [6]) was > 100 µM (not active).

In the case of Cc1cccc(C)c1Oc1nc(-c2ccccc2)ncc1S(=O)(=O)c1ccccc1, the EC50 [7] is reported as 29.8 µM (active), the EC50 [8] is reported as 13.2 µM (active) and the EC50 (Streptococcus [9]) is reported as > 500 µM (not active). For the same molecule, the EC50 [10] was 16.9 µM (active), the EC50 [11] was 44.1 µM (active) and the EC50 (Streptokinase A) was 3.99 µM (active). The EC50 (Streptococcus [12]) was > 150 µM (not active).

With [O-][n+]1onc2c1CCc1[nH]c(-c3ccccc3)nc1-2 the EC50 [13] was > 50 µM (active), the IC50 [14] was > 50 µM (not active) and the IC50 (Vero [15]) was 14 µM (active). For the same molecule, the IC50 [16] was > 50 µM (not active).

In the case of Cc1cccc(NS(=O)(=O)c2ccc(Oc3ccccc3)cc2)n1, the AC50 (Vibrio harveyi [17]) is reported as 4.9 µM (active), the AC50 (Vibrio harveyi [17]; Vibrio harveyi) is reported as 5.99 µM (active) and the AC50 (Vibrio harveyi [18]) is reported as 2.4 µM (active).

For COc1ccc(/C=C/C(=O)N[C@@H](C)C(=O)O)cc1, the EC50 [19] was > 55.7 µM (not active) and the EC50 [20] was > 55.7 µM (not active).

For O=C(CCNNC(=O)c1ccncc1)NCc1ccccc1 [NIALAMIDE], the AC50 (Cytochrome P450 1A2) was 12.6 µM (inconclusive), the AC50 (Cytochrome P450 2C19) was 10 µM (inconclusive) and the AC50 (Cytochrome P450 2C9 [21]) was 25.1 µM (inconclusive). For the same molecule, the AC50 (Cytochrome P450 2D6 [22]) was 7.94 µM (inconclusive), the AC50 (Cytochrome P450 2C9 [23]) was 10 µM (inconclusive) and the AC50 (Cytochrome P450 2D6 [24]) was 25.1 µM (inconclusive).

For O=c1c2cc(O)c(O)cc2oc2cc(O)c(C3OC(CO)C(O)C(O)C3O)c(O)c12 (stereo not drawn), the IC50 [25] was 1.19 µM (active), the IC50 (Large T antigen) was 8.63 µM (active) and the EC50 [26] was > 100 µM (inactive). The IC50 [27] was 0.262 µM (active), the IC50 [28] was > 39.8 µM (not active) and the IC50 [29] was > 39.8 µM (not active). For the same molecule, the IC50 [30] was 14 µM (active).
